From ChEMBL document CHEMBL5291721, “A preclinical secondary pharmacology resource illuminates target-adverse drug reaction associations of marketed drugs” (Nat Commun, 2023)

What was measured:
[1] = molecular target: 5-hydroxytryptamine receptor 2B (Homo sapiens, UniProt P41595); format: functional, cell-based
Acetylcholinesterase = Acetylcholinesterase (Homo sapiens, UniProt P22303); format: functional
Prothrombin = Prothrombin (Homo sapiens, UniProt P00734); format: functional
[2] = molecular target: Sodium-dependent dopamine transporter (Homo sapiens, UniProt Q01959)
Chain of Sodium-dependent dopamine transporter (Q01959 whole entry): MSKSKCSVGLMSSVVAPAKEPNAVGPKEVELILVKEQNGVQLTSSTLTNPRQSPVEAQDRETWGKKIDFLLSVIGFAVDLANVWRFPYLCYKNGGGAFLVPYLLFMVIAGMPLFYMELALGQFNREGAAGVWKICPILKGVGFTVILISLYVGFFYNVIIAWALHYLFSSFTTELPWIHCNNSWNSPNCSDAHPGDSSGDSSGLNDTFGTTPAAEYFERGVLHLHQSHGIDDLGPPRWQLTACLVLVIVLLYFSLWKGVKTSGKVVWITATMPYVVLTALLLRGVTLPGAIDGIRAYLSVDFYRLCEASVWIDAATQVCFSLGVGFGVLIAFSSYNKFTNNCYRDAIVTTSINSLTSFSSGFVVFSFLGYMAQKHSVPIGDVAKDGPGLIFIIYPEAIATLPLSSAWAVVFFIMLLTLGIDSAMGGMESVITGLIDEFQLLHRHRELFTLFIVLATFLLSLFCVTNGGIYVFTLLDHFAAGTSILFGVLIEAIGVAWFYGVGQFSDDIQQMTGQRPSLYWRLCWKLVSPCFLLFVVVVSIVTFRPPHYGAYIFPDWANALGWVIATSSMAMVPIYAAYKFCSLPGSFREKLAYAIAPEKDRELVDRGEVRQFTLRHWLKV

Thromboxane A2 receptor [3] = molecular target: T1, Thromboxane A2 receptor (Homo sapiens, UniProt P21731); format: functional, cell-based
T1 sequence (P21731 whole entry): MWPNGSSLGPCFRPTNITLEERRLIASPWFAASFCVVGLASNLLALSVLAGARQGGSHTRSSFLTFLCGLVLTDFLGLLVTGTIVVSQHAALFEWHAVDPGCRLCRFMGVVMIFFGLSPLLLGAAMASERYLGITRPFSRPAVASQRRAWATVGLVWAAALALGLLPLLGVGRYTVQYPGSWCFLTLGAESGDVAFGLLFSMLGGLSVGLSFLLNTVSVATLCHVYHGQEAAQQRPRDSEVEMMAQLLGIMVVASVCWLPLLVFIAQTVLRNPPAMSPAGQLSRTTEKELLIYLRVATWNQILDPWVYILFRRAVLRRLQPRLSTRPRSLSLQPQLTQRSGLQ

[4] = molecular target: T2, Muscarinic acetylcholine receptor M2 (Homo sapiens, UniProt P08172)
T2 sequence (P08172 whole entry): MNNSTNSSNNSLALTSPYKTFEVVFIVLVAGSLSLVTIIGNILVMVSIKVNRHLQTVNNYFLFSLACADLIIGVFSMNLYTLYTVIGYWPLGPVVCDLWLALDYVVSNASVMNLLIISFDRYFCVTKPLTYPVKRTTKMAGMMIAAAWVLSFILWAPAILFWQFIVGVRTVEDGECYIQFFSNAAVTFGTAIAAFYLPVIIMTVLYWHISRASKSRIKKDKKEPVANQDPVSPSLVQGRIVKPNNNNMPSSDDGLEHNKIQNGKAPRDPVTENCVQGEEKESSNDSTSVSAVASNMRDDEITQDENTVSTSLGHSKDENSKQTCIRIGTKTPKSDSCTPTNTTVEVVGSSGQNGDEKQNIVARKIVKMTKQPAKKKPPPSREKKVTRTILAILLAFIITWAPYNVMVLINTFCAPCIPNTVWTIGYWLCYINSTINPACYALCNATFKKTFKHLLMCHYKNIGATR

[5] = molecular target: 3',5'-cyclic-AMP phosphodiesterase 4A (Homo sapiens, UniProt P27815); format: functional
Chain of 3',5'-cyclic-AMP phosphodiesterase 4A (P27815 whole entry): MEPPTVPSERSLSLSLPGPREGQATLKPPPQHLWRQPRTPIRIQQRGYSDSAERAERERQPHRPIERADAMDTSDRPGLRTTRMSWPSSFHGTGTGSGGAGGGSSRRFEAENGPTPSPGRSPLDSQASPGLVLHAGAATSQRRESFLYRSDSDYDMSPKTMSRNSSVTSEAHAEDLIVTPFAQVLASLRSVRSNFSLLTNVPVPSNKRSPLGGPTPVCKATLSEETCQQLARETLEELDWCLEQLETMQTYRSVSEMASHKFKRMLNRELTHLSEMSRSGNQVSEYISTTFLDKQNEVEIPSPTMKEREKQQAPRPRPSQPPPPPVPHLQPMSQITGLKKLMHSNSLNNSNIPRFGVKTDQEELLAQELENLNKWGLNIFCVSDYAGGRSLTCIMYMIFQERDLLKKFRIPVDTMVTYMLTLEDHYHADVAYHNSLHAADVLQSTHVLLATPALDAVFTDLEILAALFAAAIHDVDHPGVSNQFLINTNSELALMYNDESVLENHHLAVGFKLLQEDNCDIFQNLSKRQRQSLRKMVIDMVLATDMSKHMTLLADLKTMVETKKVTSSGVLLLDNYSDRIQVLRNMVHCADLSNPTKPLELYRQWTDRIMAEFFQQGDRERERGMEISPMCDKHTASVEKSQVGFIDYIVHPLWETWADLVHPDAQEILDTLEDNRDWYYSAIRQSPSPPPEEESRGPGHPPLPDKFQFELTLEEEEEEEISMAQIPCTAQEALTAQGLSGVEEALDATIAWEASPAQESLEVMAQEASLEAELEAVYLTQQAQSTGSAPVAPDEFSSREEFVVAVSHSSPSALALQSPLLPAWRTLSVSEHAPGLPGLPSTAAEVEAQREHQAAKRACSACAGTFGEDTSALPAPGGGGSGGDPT

Histamine H3 receptor = Histamine H3 receptor (Homo sapiens, UniProt Q9Y5N1)
Chain of Histamine H3 receptor (Q9Y5N1 whole entry): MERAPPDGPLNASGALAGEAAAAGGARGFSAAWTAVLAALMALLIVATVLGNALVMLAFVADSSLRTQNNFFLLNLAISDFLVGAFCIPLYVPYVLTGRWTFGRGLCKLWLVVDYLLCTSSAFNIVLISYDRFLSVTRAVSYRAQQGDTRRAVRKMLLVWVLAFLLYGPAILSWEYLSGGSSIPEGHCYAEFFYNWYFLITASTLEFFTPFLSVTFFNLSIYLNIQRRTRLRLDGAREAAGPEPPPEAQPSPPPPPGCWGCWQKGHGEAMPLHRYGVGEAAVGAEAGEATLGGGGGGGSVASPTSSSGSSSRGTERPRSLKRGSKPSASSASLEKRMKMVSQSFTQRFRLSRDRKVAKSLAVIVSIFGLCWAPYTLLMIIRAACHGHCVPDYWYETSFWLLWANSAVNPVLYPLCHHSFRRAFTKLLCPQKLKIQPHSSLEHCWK

[6] = molecular target: cGMP-inhibited 3',5'-cyclic phosphodiesterase 3A (Homo sapiens, UniProt Q14432); format: functional
Chain of cGMP-inhibited 3',5'-cyclic phosphodiesterase 3A (Q14432 whole entry): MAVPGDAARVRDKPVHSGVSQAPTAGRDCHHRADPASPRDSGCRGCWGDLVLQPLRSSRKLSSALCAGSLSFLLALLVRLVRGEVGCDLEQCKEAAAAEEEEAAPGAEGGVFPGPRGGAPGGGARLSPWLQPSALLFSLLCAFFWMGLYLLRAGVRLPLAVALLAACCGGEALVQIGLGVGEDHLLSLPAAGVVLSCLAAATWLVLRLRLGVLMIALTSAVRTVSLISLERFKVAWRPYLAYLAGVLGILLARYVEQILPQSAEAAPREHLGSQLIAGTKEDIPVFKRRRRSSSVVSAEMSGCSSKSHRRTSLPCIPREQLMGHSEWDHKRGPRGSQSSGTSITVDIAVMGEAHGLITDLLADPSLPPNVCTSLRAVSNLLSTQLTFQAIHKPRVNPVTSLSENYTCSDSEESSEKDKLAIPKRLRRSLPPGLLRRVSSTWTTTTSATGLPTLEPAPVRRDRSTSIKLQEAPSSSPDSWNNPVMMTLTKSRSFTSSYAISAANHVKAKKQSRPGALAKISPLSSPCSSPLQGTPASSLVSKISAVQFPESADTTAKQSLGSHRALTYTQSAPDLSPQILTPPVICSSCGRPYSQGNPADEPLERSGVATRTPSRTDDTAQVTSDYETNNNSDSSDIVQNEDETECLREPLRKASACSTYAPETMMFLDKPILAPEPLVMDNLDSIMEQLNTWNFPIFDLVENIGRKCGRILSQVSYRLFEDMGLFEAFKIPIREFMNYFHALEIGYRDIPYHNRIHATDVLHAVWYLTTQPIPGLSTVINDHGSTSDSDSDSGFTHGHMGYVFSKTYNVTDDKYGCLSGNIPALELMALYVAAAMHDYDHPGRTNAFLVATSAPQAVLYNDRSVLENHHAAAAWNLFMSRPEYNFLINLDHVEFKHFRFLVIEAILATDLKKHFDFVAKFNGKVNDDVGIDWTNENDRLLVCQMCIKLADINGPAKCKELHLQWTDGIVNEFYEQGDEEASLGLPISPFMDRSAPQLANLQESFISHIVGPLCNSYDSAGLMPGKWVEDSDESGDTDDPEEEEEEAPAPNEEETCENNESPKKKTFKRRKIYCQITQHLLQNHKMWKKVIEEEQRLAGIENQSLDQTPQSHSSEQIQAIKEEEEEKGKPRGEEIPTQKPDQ

[7] = molecular target: T3, 5-hydroxytryptamine receptor 1A (Homo sapiens, UniProt P08908)
T3 sequence (P08908 whole entry): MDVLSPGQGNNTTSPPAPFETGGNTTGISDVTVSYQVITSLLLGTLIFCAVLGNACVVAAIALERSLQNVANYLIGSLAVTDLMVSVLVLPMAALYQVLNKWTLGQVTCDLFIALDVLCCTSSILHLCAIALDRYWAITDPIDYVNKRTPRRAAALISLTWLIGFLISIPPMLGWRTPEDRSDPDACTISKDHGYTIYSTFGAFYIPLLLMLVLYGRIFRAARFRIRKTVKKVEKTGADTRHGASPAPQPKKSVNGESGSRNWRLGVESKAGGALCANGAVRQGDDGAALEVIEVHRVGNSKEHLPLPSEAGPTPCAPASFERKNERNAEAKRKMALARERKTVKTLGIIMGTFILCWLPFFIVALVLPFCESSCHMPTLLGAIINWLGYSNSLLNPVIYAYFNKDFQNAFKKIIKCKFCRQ

[8] = molecular target: T4, Amine oxidase [flavin-containing] A (Homo sapiens, UniProt P21397); format: functional
T4 sequence (P21397 whole entry): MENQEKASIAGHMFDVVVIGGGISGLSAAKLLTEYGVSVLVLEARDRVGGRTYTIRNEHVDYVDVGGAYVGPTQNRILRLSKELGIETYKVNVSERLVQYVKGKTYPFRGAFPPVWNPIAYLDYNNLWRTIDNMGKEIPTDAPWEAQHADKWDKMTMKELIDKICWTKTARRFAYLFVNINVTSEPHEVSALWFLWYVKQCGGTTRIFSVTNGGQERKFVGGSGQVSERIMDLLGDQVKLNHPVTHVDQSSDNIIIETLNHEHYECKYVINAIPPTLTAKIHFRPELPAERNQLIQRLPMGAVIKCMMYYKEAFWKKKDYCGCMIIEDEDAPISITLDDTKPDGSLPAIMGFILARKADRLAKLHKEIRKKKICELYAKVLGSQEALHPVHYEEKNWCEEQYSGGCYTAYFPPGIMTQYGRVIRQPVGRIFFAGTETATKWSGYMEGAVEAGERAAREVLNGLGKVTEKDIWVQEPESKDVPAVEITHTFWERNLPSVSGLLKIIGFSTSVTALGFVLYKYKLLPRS

[9] = molecular target: T5, Alpha-2A adrenergic receptor (Homo sapiens, UniProt P08913)
T5 sequence (P08913 whole entry): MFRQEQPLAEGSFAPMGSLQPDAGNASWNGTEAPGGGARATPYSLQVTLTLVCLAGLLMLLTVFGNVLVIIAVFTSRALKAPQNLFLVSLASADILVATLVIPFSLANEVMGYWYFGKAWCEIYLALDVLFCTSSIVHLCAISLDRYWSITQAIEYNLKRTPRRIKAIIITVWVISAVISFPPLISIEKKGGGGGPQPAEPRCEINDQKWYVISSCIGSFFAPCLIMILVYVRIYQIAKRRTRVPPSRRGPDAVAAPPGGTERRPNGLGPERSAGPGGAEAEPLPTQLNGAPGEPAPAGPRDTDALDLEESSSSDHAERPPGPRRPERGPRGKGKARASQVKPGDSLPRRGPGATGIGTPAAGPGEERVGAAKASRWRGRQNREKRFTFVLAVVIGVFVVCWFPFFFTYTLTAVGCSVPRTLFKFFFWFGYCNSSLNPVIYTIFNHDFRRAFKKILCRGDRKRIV

Thromboxane A2 receptor [10] = molecular target: T1, Thromboxane A2 receptor; format: functional, cell-based; remark: listed apart in the source
Note: assay procedure not described here.

Chain of 5-hydroxytryptamine receptor 2B (P41595 whole entry): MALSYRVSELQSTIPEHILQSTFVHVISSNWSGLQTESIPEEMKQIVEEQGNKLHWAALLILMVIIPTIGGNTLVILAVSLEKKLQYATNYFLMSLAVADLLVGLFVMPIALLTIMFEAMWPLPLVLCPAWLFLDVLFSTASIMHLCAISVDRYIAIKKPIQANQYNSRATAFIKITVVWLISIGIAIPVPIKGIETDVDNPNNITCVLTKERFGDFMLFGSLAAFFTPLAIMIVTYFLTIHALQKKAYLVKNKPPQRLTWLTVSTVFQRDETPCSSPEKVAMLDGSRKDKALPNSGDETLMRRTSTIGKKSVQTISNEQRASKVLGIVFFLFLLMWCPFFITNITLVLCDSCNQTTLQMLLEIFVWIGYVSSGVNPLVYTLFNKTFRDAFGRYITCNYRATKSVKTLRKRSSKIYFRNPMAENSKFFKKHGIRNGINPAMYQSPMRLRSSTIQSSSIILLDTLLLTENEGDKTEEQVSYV
Chain of Acetylcholinesterase (P22303 whole entry): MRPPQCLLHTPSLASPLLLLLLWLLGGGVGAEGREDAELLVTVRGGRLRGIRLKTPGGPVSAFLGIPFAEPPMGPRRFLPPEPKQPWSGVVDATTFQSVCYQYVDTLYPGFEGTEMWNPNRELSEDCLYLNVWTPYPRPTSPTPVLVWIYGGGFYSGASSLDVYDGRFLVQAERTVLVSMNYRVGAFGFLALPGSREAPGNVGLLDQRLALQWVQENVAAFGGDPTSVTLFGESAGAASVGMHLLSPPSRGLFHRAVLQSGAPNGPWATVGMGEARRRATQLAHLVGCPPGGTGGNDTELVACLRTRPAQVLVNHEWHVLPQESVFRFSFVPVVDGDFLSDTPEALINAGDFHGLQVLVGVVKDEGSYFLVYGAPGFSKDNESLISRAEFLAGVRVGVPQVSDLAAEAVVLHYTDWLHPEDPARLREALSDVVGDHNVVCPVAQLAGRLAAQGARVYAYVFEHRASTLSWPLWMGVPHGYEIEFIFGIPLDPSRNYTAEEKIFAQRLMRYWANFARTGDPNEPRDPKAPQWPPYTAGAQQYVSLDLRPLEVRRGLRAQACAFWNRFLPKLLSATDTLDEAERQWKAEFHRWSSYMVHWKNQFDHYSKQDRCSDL

SMILES | AC50 [1] [µM] | AC50 (Acetylcholinesterase) [µM] | AC50 (Prothrombin) [µM] | AC50 [2] [µM] | AC50 (Thromboxane A2 receptor [3]) [µM] | AC50 [4] [µM] | AC50 [5] [µM] | AC50 (Histamine H3 receptor) [µM] | AC50 [6] [µM] | AC50 [7] [µM] | AC50 [8] [µM] | AC50 [9] [µM] | AC50 (Thromboxane A2 receptor [10]) [µM]
COc1ccc2c(C(=S)N(C)CC(=O)O)cccc2c1C(F)(F)F [TOLRESTAT] | > 30 | > 30 | > 30 | > 30 | > 30 | > 30 | > 30 | > 30 | > 30 | > 30 | > 30 | > 30 | > 30
CCC[C@H](N[C@@H](C)C(=O)N1[C@H](C(=O)O)C[C@@H]2CCCC[C@@H]21)C(=O)OCC [PERINDOPRIL] | > 30 | > 30 | > 30 | > 30 | > 30 | > 30 | > 30 | > 30 | > 30 | > 30 | > 30 | > 30 | > 30
CC(=O)[C@H]1CC[C@H]2[C@@H]3C=CC4=CC(=O)CC[C@@]4(C)[C@@H]3CC[C@]12C [DYDROGESTERONE] | > 30 | > 30 | > 30 | > 30 | > 30 | > 30 | > 30 | > 30 | > 30 | > 30 | > 30 | > 30 | 25.1
CC1(C)S[C@@H]2[C@H](/N=C/N3CCCCCC3)C(=O)N2[C@H]1C(=O)O [AMDINOCILLIN] | > 30 | > 30 | > 30 | > 30 | > 30 | > 30 | > 30 | > 30 | > 30 | > 30 | > 30 | > 30 | > 30
O=C(/C=C/c1cccc(S(=O)(=O)Nc2ccccc2)c1)NO [BELINOSTAT] | > 30 | > 30 | > 30 | > 30 | > 30 | > 30 | 23.7 | > 30 | > 30 | > 30 | > 30 | > 30 | > 30
CC(O)(P(=O)(O)O)P(=O)(O)O [ETIDRONIC ACID] | > 30 | > 30 | > 30 | > 30 | > 30 | > 30 | > 30 | > 30 | > 30 | > 30 | > 30 | > 30 | > 30
CC(=O)[C@]1(N)Cc2c(O)c3c(c(O)c2[C@@H](O[C@H]2C[C@H](O)[C@H](O)CO2)C1)C(=O)c1ccccc1C3=O [AMRUBICIN] | > 30 | > 30 | > 30 | > 30 | 11.8 | > 30 | > 30 | > 30 | > 30 | > 30 | > 30 | > 30 | > 1
